{"source": "patent US20070155771A1", "about": "“Methods and means for treating protein conformational disorders” (priority 2003, published 2007)", "key": {"[1]": {"tested_on": "COS-7 cells expressing an exon 1 fragment of the HD gene with 74 glutamines (Q74)", "assay": "Aggregate formation and abnormal cell nuclei in transiently transfected COS-7 cells expressing Q74", "type": "cell-based, African green monkey", "details": "for cell death (apoptotic nuclear morphology) in Q74-expressing cells / proportions of Q74-expressing cells with aggregates / appearance (size, number) of Q74 aggregates in cells with aggregates: 48 hours after transfection; for cell death (apoptotic nuclear morphology) in Q74-expressing cells: drug for 15 hours before fixing, same concentrations; for cell death (apoptotic nuclear morphology) in Q74-expressing cells / proportions of Q74-expressing cells with aggregates: vs untreated; for proportions of Q74-expressing cells with aggregates: drug for 15 hours before fixing: 10 mM 3-MA, 0.5 mM DMA, 200 nM BafA1, 0.2 μg/ml rapamycin, 10 μM epoxomicin, 10 μM lactacystin; for appearance (size, number) of Q74 aggregates in cells with aggregates: immunofluorescence, drug 15 hours", "excerpt": "(§1) Mammalian expression vectors comprising EGFP (pEGFP-C1, Clontech) fused at its C-terminus with a Huntington's Disease gene exon 1 fragment with 74 polyglutamine repeats (Q74) or a polyalanine stretch of 19 repeats (A19) were used (Rankin, J. et al (2000) Biochem. J., 348, 15-19; Narain, Y. et al (1999) J. Med. Genet., 36, 739-746.). A Haemagglutinin-tagged Huntington's Disease gene exon 1 fragment with 74 polyglutamine repeats in pHM6 vector (Q74-HA) was also used. The PC12 stable lines expressing exon 1 of Huntington gene were as described in Wyttenbach A. et al., (2001) Hum. Mol. Genet. 10 1829-45.\n(§2) African green monkey kidney cells (COS-7) were grown in Dulbecco's Modified Eagle Medium (DMEM, Sigma) supplemented with 10% Fetal Bovine Serum (FBS), 100 U/ml Penicillin/Streptomycin, 2 mM L-Glutamine and 1 mM Sodium Pyruvate at 37° C., 5% Carbon dioxide. The cells were grown on coverslips in six-well plates for immunofluorescence analysis, or were directly grown in six-well plates to 60-80% confluency for 24 hours for western blot analysis. Transfection was done using LipofectAMINE reagent (Invitrogen) using the manufacturer's protocol. The transfection mixture was replaced by normal culture medium after 5 hours incubation at 37° C. and the transfected cells were analysed by immunofluorescence or immunoblot 48 hours after transfection. The cells were left untreated or treated with 10 mM 3-methyl adenine (3-MA, Sigma), 0.5 mM N^6, N^6, Dimethyl adenosine (DMA, Sigma), 0.2 μg/ml Rapamycin (Sigma), 200 nM Bafilomycin A1 (BafA1, Sigma), 10 μM Lactacystin (Sigma) or 10 μM epoxomicin (Affinity research products ltd.) for 15 hours before fixation for immunofluorescence or processing for western blots. DMA, BafA1, epoxomicin and rapamycin were dissolved in DMSO and 3-MA and lactacystin were in water. Equal amounts of water or DMSO were added to the untreated controls, where relevant. The cells on coverslips were rinsed with 1×PBS, fixed with 4% paraformaldehyde in 1×PBS for 20 min and mounted in antifadent supplemented with 4′,6-diamidino-2-phenylindole (DAPI, 3 μg/ml, Sigma) to allow visualisation of nuclear morphology. The PC12 stable cells were maintained at 75 μg/ml hygromycin in standard medium consisting of high glucose DMEM (Sigma) with 100 U/ml penicillin/streptomycin, 2 mM L-glutamine (Invitrogen), 10% heat-inactivated horse serum (Invitrogen), 5% Tet-approved fetal bovine serum (FBS) (Clontech) and 100 μg/ml G418 (Invitrogen) at 37° C., 10% CO2. The cells were seeded at 1-2×10^5 per well in 6-well plates and were induced with 1 μg/ml doxycycline (Sigma) for 8 hours. The expression of transgenes was switched off by removing doxycycline from the medium. Cells were either left untreated or treated with 3-MA, BafA1, epoxomicin, lactacystin, rapamycin, 10 μg/ml cycloheximide (Sigma) or cycloheximide+rapamycin at the concentrations specified above for 24, 48 or 72 hours and the medium with the inhibitors/activator changed every 24 hours. The cells were then scraped off from the wells into 1.5 ml eppendorf tubes, pelleted at 8000 rpm and washed twice with 1×PBS. They were either fixed with 4% paraformaldehyde for 20 minutes and mounted in DAPI over coverslips on glass slides or processed for western blot analysis. CCI-779 was supplied by Wyeth Pharmaceuticals (Philadelphia). For tissue culture experiments, a stock solution of 1M in ethanol was prepared the day of experiment and was diluted in the appropriate medium\n(§3) The pellets for westerns from COS-7 or PC12 cells were lysed on ice in Laemmli buffer (62.5 mM Tris-HCl pH6.8, 5% β-mercaptoethanol, 10% glycerol, and 0.01% bromophenol blue) for 30 min in the presence of protease inhibitors (Roche Diagnostics). The lysates were subjected to SDS-PAGE (10%) electrophoresis and proteins transferred onto nitrocellulose membrane (Amersham Pharmacia Biotech). […]"}, "[2]": {"tested_on": "COS-7 cells expressing EGFP fused to 19 alanines (A19)", "assay": "Aggregate formation and abnormal cell nuclei in transiently transfected COS-7 cells expressing A19", "type": "cell-based, African green monkey", "details": "for cell death (abnormal nuclei) in A19-expressing cells / proportions of A19-expressing cells with aggregates / appearance (size, number) of A19 aggregates in cells with aggregates: 48 hours after transfection; for cell death (abnormal nuclei) in A19-expressing cells: drug for 15 hours before fixing, same concentrations; for cell death (abnormal nuclei) in A19-expressing cells / proportions of A19-expressing cells with aggregates: vs untreated; for proportions of A19-expressing cells with aggregates: drug for 15 hours before fixing: 10 mM 3-MA, 0.5 mM DMA, 200 nM BafA1, 0.2 μg/ml rapamycin, 10 μM epoxomicin; for appearance (size, number) of A19 aggregates in cells with aggregates: immunofluorescence, drug 15 hours", "excerpt": "as §1, §2, §3"}, "[3]": {"tested_on": "PC12 cell line expressing EGFP-tagged HD exon 1 with Q74", "assay": "Turnover of Q74 protein and aggregates in stable doxycycline-inducible PC12 cells after switching expression off", "type": "cell-based, rat", "details": "for numbers of aggregate containing cells / visible aggregates: vs time-matched control; for aggregate formation as high molecular weight fraction on the stack (western blot): 72 hours after switching off the expression, vs time-matched untreated controls", "description": "as §2\nThe pellets for westerns from COS-7 or PC12 cells were lysed on ice in Laemmli buffer (62.5 mM Tris-HCl pH6.8, 5% β-mercaptoethanol, 10% glycerol, and 0.01% bromophenol blue) for 30 min in the presence of protease inhibitors (Roche Diagnostics). The lysates were subjected to SDS-PAGE (10%) electrophoresis and proteins transferred onto nitrocellulose membrane (Amersham Pharmacia Biotech). The primary antibodies used include mouse monoclonal anti-GFP antibody (8362-1, Clontech) at 1:2000, rabbit monoclonal anti-actin antibody (A2066, Sigma) at 1:3000, mouse monoclonal anti-tubulin antibody (Clone DM 1A, Sigma) at 1:1000 and mouse monoclonal anti-HA antibody (Covance) at 1:1000. Blots were probed with Horse Radish Peroxidase (HRP) conjugated anti-mouse or anti-rabbit IgG (Bio Rad) at 1:2000. Bands were visualised using the ECL detection reagent (Amersham). […]"}}}
{"compound": "Cn1cnc(N)c2ncnc1-2", "note": "[3-MA, 3-methyl adenine]", "values": [{"measurement": "cell death (apoptotic nuclear morphology) in Q74-expressing cells", "setting": "[1]", "result": "increase"}, {"measurement": "proportions of Q74-expressing cells with aggregates", "setting": "[1]", "result": "increased"}, {"measurement": "appearance (size, number) of Q74 aggregates in cells with aggregates", "setting": "[1]", "result": "increased their apparent size and number"}, {"measurement": "levels of an HA-tagged version of the HD exon 1 fragment with Q74", "setting": "[1]; western blot, 10 mM 3-MA", "result": "increase"}, {"measurement": "levels of the transgene protein (EGFP-Q74)", "setting": "[1]; western blot, 10 mM 3-MA", "result": "increase"}, {"measurement": "cell death (abnormal nuclei) in A19-expressing cells", "setting": "[2]", "result": "increase"}, {"measurement": "proportions of A19-expressing cells with aggregates", "setting": "[2]", "result": "increased"}, {"measurement": "appearance (size, number) of A19 aggregates in cells with aggregates", "setting": "[2]", "result": "increased their apparent size and number"}, {"measurement": "levels of the transgene protein (EGFP-A19)", "setting": "[2]; western blot, 10 mM 3-MA", "result": "increase"}, {"measurement": "numbers of aggregate containing cells / visible aggregates", "setting": "[3]; 8 h ON then 72 h OFF with drug", "result": "increased"}, {"measurement": "aggregate formation as high molecular weight fraction on the stack (western blot)", "setting": "[3]", "result": "increased aggregate formation"}]}
{"compound": "CO/C1=C\\C(C)=C\\[C@@H](C)[C@@H](O)[C@@H](C)C/C(C)=C/C=C/[C@H](OC)[C@@H]([C@@H](C)[C@@H](O)[C@H](C)[C@@]2(O)C[C@@H](O)[C@H](C)[C@@H](C(C)C)O2)OC1=O", "note": "[BafA1, Bafilomycin A1]", "values": [{"measurement": "cell death (apoptotic nuclear morphology) in Q74-expressing cells", "setting": "[1]", "result": "increase"}, {"measurement": "proportions of Q74-expressing cells with aggregates", "setting": "[1]", "result": "increased"}, {"measurement": "appearance (size, number) of Q74 aggregates in cells with aggregates", "setting": "[1]", "result": "increased size"}, {"measurement": "cell death (abnormal nuclei) in A19-expressing cells", "setting": "[2]", "result": "increase"}, {"measurement": "proportions of A19-expressing cells with aggregates", "setting": "[2]", "result": "increased"}, {"measurement": "appearance (size, number) of A19 aggregates in cells with aggregates", "setting": "[2]", "result": "increased size"}, {"measurement": "numbers of aggregate containing cells / visible aggregates", "setting": "[3]; 8 h ON then 72 h OFF with drug", "result": "increased"}, {"measurement": "aggregate formation as high molecular weight fraction on the stack (western blot)", "setting": "[3]", "result": "increased aggregate formation"}]}
{"compound": "CC[C@H](C)[C@H](NC(=O)[C@H]([C@@H](C)CC)N(C)C(C)=O)C(=O)N[C@H](C(=O)N[C@@H](CC(C)C)C(=O)[C@@]1(C)CO1)[C@@H](C)O", "note": "[epoxomicin]", "values": [{"measurement": "cell death (apoptotic nuclear morphology) in Q74-expressing cells", "setting": "[1]", "result": "did not affect"}, {"measurement": "proportions of Q74-expressing cells with aggregates", "setting": "[1]", "result": "did not affect"}, {"measurement": "appearance (size, number) of Q74 aggregates in cells with aggregates", "setting": "[1]", "result": "more aggregates in each aggregate-containing cell"}, {"measurement": "proportions of A19-expressing cells with aggregates", "setting": "[2]", "result": "increase"}, {"measurement": "appearance (size, number) of A19 aggregates in cells with aggregates", "setting": "[2]", "result": "more aggregates in each aggregate-containing cell"}, {"measurement": "cellular fluorescence", "setting": "[3]; 8 h ON then 48 h OFF with 10 μM epoxomicin", "result": "obvious increase"}, {"measurement": "number of aggregate-containing cells", "setting": "[3]; 8 h ON then 48 h OFF with 10 μM epoxomicin or 10 μM lactacystin, vs control", "result": "reduction"}, {"measurement": "heat shock protein 70", "setting": "[3]; epoxomicin treatment", "result": "marked increase"}]}
{"compound": "rapamycin", "values": [{"measurement": "cell death (apoptotic nuclear morphology) in Q74-expressing cells", "setting": "[1]", "result": "no significant change"}, {"measurement": "proportions of Q74-expressing cells with aggregates", "setting": "[1]", "result": "no significant change"}, {"measurement": "cell death (abnormal nuclei) in A19-expressing cells", "setting": "[2]", "result": "decrease"}, {"measurement": "proportions of A19-expressing cells with aggregates", "setting": "[2]", "result": "decrease"}, {"measurement": "cell fluorescence (EGFP-Q74 clearance)", "setting": "[3]; 8 h ON then 72 h OFF with drug, 0.2 μg/ml rapamycin, 10 μg/ml cycloheximide", "result": "loss of fluorescence"}, {"measurement": "Q74 protein levels on a western blot", "setting": "[3]; 8 h ON, then OFF with 0.2 μg/ml rapamycin, vs untreated control", "result": "decrease"}]}
